Results published in patent US20250059183A1, “PYRIDINE[4,3-D]PYRIMIDINE COMPOUND AS TLR7/8 AGONIST” (SHANGHAI VISONPHARMA CO., LTD., priority 2021, published 2025).

Assays:
[1] = biological target: T1, human TLR7 (Homo sapiens, UniProt Q9NYK1); assay: HEK-Blue hTLR7 SEAP reporter gene agonist assay; type: cell-based; settings: HEK-Blue hTLR7 cells, 16 to 22 hours incubation
T1 construct: host or cells: HEK-Blue hTLR7 (HEK293-derived reporter cells)
T1 sequence (Q9NYK1 27-1049): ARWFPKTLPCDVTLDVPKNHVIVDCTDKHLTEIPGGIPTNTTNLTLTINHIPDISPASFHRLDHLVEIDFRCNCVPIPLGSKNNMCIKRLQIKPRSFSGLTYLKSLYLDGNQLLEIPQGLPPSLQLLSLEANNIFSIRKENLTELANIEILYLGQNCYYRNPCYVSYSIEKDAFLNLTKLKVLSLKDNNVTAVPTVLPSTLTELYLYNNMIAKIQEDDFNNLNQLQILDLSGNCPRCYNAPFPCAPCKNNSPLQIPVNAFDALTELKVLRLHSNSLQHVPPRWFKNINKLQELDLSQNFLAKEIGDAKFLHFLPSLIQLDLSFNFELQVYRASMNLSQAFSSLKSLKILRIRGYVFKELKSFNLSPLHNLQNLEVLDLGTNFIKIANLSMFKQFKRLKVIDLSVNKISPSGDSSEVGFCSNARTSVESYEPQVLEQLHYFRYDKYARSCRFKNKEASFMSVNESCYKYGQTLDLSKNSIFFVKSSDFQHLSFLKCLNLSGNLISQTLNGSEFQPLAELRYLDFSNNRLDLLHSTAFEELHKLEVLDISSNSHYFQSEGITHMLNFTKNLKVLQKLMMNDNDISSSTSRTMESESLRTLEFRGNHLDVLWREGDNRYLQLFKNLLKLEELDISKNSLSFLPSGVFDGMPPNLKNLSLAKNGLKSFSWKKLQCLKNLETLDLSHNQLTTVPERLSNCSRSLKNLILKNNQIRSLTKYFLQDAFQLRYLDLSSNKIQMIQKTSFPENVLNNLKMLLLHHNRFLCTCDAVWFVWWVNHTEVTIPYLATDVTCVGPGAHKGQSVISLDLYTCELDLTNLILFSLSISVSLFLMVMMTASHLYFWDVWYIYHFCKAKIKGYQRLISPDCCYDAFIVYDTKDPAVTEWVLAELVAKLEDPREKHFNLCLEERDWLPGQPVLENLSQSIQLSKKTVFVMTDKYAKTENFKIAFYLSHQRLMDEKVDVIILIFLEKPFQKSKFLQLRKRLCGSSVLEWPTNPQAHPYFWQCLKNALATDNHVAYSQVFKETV
How it was run: (§1)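 HEK-Blue cells stably expressing human TLR7 or TLR8 carry a SEAP reporter driven by a minimal IFN-β promoter fused to 5×NF-κB and AP-1 sites. Compounds at […] final, 16 to 22 h. SEAP in the medium measured with Quanti-blue at OD650, and EC50 derived.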

[2] = biological target: T2, human TLR8 (Homo sapiens, UniProt Q9NR97); assay: HEK-Blue hTLR8 SEAP reporter gene agonist assay; type: cell-based; settings: HEK-Blue hTLR8 cells, 16 to 22 hours incubation
T2 construct: host or cells: HEK-Blue hTLR8 (HEK293-derived reporter cells)
T2 sequence (Q9NR97 27-1041): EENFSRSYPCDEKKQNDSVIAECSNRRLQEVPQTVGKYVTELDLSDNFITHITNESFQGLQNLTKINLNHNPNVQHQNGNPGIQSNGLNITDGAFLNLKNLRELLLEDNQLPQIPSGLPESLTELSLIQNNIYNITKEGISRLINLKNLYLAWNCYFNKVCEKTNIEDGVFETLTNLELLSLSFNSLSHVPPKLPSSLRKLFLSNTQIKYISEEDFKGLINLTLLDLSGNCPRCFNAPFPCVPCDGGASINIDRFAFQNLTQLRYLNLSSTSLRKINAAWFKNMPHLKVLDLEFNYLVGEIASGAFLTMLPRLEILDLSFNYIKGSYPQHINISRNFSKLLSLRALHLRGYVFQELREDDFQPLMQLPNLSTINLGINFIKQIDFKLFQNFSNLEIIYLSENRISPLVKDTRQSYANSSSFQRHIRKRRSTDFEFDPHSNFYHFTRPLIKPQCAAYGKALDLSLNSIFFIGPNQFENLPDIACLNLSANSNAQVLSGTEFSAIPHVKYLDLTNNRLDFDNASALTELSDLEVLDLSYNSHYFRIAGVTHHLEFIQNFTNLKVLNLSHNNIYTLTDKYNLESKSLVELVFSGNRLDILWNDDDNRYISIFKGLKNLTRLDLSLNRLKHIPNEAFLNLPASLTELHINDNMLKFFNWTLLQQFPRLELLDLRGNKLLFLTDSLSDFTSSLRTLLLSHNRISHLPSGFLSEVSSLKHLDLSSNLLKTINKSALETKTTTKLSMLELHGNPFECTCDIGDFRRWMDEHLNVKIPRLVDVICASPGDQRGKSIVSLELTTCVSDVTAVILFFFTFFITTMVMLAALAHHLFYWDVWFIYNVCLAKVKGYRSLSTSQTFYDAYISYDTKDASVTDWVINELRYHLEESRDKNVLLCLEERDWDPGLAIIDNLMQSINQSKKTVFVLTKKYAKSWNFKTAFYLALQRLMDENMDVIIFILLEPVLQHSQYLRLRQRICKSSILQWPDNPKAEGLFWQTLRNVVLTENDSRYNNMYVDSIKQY
How it was run: as §1

| SMILES | EC50 [1] | EC50 [2] |
| --- | --- | --- |
| CCC[C@@H](CO)Nc1nc(N)nc2ccn(Cc3ccc(C(=O)N4CCN(C)CC4)cc3OC)c(=O)c12 [Compound I-212, (S)-2-amino-4-((1-hydroxypentan-2-yl)amino)-6-(2-methoxy-4-(4-methylpiperazine-1-carbonyl)benzyl)pyrido[4,3-d]pyrimidin-5(6H)-one] | 60 nM | 4 nM |
| CCC[C@@H](C)Nc1nc(N)nc2ccn(Cc3ccc(CN4CCN(CCN)CC4)cc3OC)c(=O)c12 [Compound I-213, (R)-2-amino-6-(4-((4-(2-aminoethyl)piperazin-1-yl)methyl)-2-methoxybenzyl)-4-(pentan-2-ylamino)pyrido[4,3-d]pyrimidin-5(6H)-one] | 100 nM | 9 nM |
| CCC[C@@H](CO)Nc1nc(N)nc2ccn(Cc3ccc(CNC)cc3OC)c(=O)c12 [Compound I-214, (S)-2-amino-4-((1-hydroxypentan-2-yl)amino)-6-(2-methoxy-4-((methylamino)methyl)benzyl)pyrido[4,3-d]pyrimidin-5(6H)-one] | 86 nM | 3 nM |
| CCC[C@@H](C)Nc1nc(N)nc2ccn(Cc3ccc(CN4CCN(CCCO)CC4)cc3OC)c(=O)c12 [Compound I-216, (R)-2-amino-6-(4-((4-(3-hydroxypropyl)piperazin-1-yl)methyl)-2-methoxybenzyl)-4-(pentan-2-ylamino)pyrido[4,3-d]pyrimidin-5(6H)-one] | 63 nM | 40 nM |
| CCC[C@@H](CO)Nc1nc(N)nc2ccn(Cc3ccc(CN4CCN(CCCCCCN)CC4)cc3OC)c(=O)c12 [Compound I-217, (S)-2-amino-6-(4-((4-(6-aminohexyl)piperazin-1-yl)methyl)-2-methoxybenzyl)-4-((1-h hydroxypentan-2-yl)amino)pyrido[4,3-d]pyrimidin-5(6H)-one] | 100 nM | 35 nM |
